Test results from patent US11248023B2 (NEURACLE SCIENCE CO., LTD., priority 2015, dated 2022).
Square brackets hold non-standard residues; d marks the D form. Peptide text beside a SMILES is read from it. PEG = not defined here

Experiments:
[1] = Stability in 100% fetal bovine serum, residual potency via IP3 production in GALR2-expressing cells; conditions: 37° C., 0-72 h, IP3 production in GALR2-expressing cells
Protocol: The stability of the spexin-based mutant peptides was investigated. To this end, first, each modified mutant peptide at an initial concentration 10 μM was allowed to react in 100% fetal bovine serum (FBS) at 37° C. for 0, 3, 6, 12, 24, 48, and 72 h. Thereafter, the potencies of the mutant peptide toward GALR2 were determined via inositol 1,4,5-triphosphate (IP3) production in GALR2-expressing cells. For the IP3 assay, cells were seeded in 12-well plates at a density of 2.5×10^5 cells/well and then the next day, cells were treated with a mixture of 1 μg of GALR2-encoding plasmid DNA and Lipofectamine 2000 (Invitrogen). On day following treatment, cells were incubated in M199 media containing 1% FBS, 1% L-glutamine, 1% antibiotic, and myo-^3H inositol 1 μCi/well for 20 h to radioactively label inositol phosphate. After this stage was finished, cells were allowed to react in buffer A (140 mM NaCl, 20 mM Hepes, 4 mM KCl, 8 mM D-glucose, 1 mM MgCl2, 1 mM CaCl2), 1 mg/ml free fatty acid bovine serum albumin, and 10 mM LiCl at pH 7.2) for 30 min. After the mutant peptide was allowed to react in 100% FBS, cells were treated with the mutant peptide for 40 min at 37° C. Media was removed, and reactions were terminated by addition of 1 ml of 10 mM cold formic acid to each well. The plates were allowed to stand at 4° C. for 30 min. Then, the resulting extracts were transferred to 6-mL plastic tubes containing 500 μl AG1-8X anion exchange columns. The tubes were gently mixed with a vortexer, and the supernatants were removed from the labeled mixture. Two washes with 1 ml of triple-distilled water were performed followed by two additional washes with 60 mM ammonium formate/5 mM sodium tetraborate. The radioactively labeled mixture was eluted from the column with 1 ml of 1 M ammonium formate/0.1 M formic acid (1 mL), and 800 μl from the elution were taken from each tube and transferred into scintillation vials. Then, 2 ml of scintillation cocktail solution (Ultima Gold™, Perkin Elmer, Waltham Mass., USA) was added to each sample. The radioactivity of the mixture solution of the radioactively labeled mixture and the scintillation cocktail solution was measured using a TRI carb 2100TR liquid scintillation analyzer (Packard).

[2] = Dietary intake and body weight change after intracerebroventricular administration; type: in vivo, mice
Protocol: C57BL/6J black male mice (9 weeks of age) were acquired from Orientbio (www.orient.co.kr). Mice were housed in a cage at 20-24° C. and 40-70% relative humidity under a normal 12:12 light-dark cycle (lights onset at 8:00 am), with food and water available ad libitum. All experiments were designed to minimize the number of animals. Animals were anesthetized to minimize their suffering in accordance with the Guidelines for Ethical Care and Use of Experimental Animals, which were approved by the institutional animal care and use committee of Korea University. For intracerebroventricular injection, mice were anesthetized with sodium pentobarbital (50 mg/kg, i.p.), mounted on a stereotaxic apparatus, and implanted with a 26-gauge stainless steel cannula into the right side of the lateral ventricle. Two jewelry screws were implanted into the skull as anchors, and the whole assembly was affixed to the skull with dental cement. Mice were recovered at least 2 weeks before experimentation. The GALR2 agonist was administered using a Hamilton syringe at a rate of 0.5 μl/min. Dietary intakes and weight changes were determined by measuring the weights of feed and mice before agonist administration, measuring the weights of the feed over 1, 2, 4, 12, and 24 h, and comparing the weight of mice after 24 h with the initial weight.
The effects of the GALR2 agonist on feeding behaviors and changes in body weight were investigated by the following procedure. First, a cannula was inserted into the third ventricle.

[3] = biological target: T1, GALR2 (Homo sapiens, UniProt O43603); assay: SRE-luc assay in HEK293-Gqi cells expressing GALR2; type: cell-based; conditions: GALR2 versus GALR3
T1 construct: expressed in transfected cells
T1 sequence (O43603 1-387): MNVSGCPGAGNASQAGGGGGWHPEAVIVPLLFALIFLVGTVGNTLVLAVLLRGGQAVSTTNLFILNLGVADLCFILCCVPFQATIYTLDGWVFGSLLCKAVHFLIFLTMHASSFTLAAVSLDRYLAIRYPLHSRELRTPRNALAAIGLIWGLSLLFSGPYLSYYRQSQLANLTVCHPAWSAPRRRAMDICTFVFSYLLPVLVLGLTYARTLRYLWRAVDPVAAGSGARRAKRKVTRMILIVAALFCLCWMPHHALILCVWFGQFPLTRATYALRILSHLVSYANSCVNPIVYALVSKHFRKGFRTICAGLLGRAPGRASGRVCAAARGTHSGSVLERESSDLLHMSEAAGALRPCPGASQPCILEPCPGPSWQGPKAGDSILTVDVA
Text: The HEK293-Gqi stable cell line is a cell line in which the C-terminus of Gq is substituted with 3 amino acids of G to convert the signals of G to Gq signaling pathways. […] GALR subtypes 1 and 3 induce inhibitory G-coupled signaling, while GALR subtype 2 triggers stimulatory Gq-coupled signaling. This difference explains the use of the HEK293-Gqi stable cell line in which the C-terminus of Gq is substituted with 3 amino acids of G to convert the signals of Gi to Gq signaling pathways.
GALR subtypes 1 and 3 induce inhibitory G-coupled signaling, while GALR subtype 2 triggers stimulatory Gq-coupled signaling. This difference explains the use of the HEK293-Gqi stable cell line in which the C-terminus of Gq is substituted with 3 amino acids of G to convert the signals of G to Gq signaling pathways. The activities of the receptors were measured using an SRE-luc assay system designed to express luciferase (luc) by serum responsive element (SRE) promoters. Light caused by a reaction between expressed luciferase and luciferin as a substrate was detected using a luminometer so that receptor subtype-specific or ligand-specific cellular activities were observed. One day after HEK293-Gqi cells were seeded in 48-well plates at a density of 2×10^4 cells/well, plasmid DNA and SRE-luc plasmid DNA, which encode GALR2 and GALR3, respectively, were mixed in a ratio of 1:1 (75 ng+75 ng)/well, and treated with Effectene reagent (2 μl/well). After 3 h, media were replaced with DMEM media supplemented with 10% FBS. After 24 h, the DMEM media were replaced with FBS-free DMEM media. After 16 h, each constructed spexin-based mutant peptide was further incubated at 37° C. for 6 h. After this stage was finished, cells were washed with PBS and lysed by the addition of 100 μl of lysis buffer (0.1% triton X-100, 0.2M Tris, pH 8.0) at room temperature for 20 min. The luciferase activity was determined using a synergy 2 Multi-mode microplate reader (BioTek, Winooski, Vt., USA) with automatic injection of a luciferin solution (0.5 M MgCl2, 0.1 M ATP, 0.05 M D-luciferin, 1 M KH2PO4, pH 7.8).

[4] = tested on: neurons in the amygdala and arcuate nucleus; assay: Neuron activity after nasal inhalation of GALR2 agonist; type: in vivo, mice; conditions: 8 μg nasal inhalation, 1-2 h; like intracerebroventricular injection
Protocol: 1-2 h after nasal inhalation, the results were recorded. The results of nasal inhalation were compared with those of intracerebroventricular injection.

[5] = tested on: neurons in the arcuate nucleus; assay: c-fos immunohistochemistry, arcuate nucleus, after ventricular administration; type: in vivo, mice; conditions: 0.4, 4, and 40 μg to the ventricle, 1 h
[6] = tested on: neurons in the amygdala; assay: c-fos immunohistochemistry, amygdala and other brain regions; type: in vivo, mice; conditions: 0.4, 4, and 40 μg to the ventricle, 1-2 h
Protocol: Then, the brain was placed in a mold for brain tissue, transferred to and frozen in an isopentane solution kept cold on dry ice with an OCT composite containing 30% sucrose solution, and stored at −80° C. before use. The frozen brain tissue was sliced at 40 μm using a cryostat microtome, followed by immunohistochemistry.

[7] = Open field test (OFT) in anxiety-induced mice; type: in vivo; conditions: vs DMSO
Text: The effect of the GALR2 agonist on anxiety reduction was investigated by the OFT for simultaneously measuring movement and anxiety (FIG. 13). The OFT is based on the behavior of mice that prefer to stay at the periphery rather than at the center of a quadrangular area. After mice were placed at the center of a quadrangular area, the proportion of the time spent in the center (“% time in center”), the proportion of the moving distance in the center (“% distance in center”), and the total moving distance (“total distance”) were measured for 10 min from the time when the animals moved to the periphery. The results were divided into two equal periods (5 min each) for analysis. 2-3 h after 4 μg of DMSO as a control or the GALR2 agonist dN1-Qu was administered to the lateral ventricle of animals, which had previously been evoked by repeated electric shocks to induce anxiety, anxiety and movement were measured.

[8] = Elevated plus maze (EPM) test; type: in vivo, mice; conditions: 4 μg lateral ventricle, 2-3 h after administration, vs DMSO
Protocol: The effect of the GALR2 agonist dN1-Qu on recovery from anxiety disorder was investigated. In the same manner as in Example 3, a cannula was inserted into the lateral ventricle of mice. 2-3 h after dimethyl sulfoxide (DMSO) as a control or 4 μg of the GALR2 agonist dN1-Qu as an experimental group was administered, the elevated plus maze (EPM) test was conducted to measure anxiety/obsession. The EPM test uses a cross-shaped maze elevated above the floor with closed arms, open arms, and a center and is based on the behavior of mice that prefer to remain in the closed arms. Anxiety is judged to be lower when a larger number of mice remain in the open arms. After mice was placed on the plus maze, the time spent in the open arms (“time in open arm”), the number of mice entering the open arms (“number of open arm entry”), and the total movement (“number of center crossing”) were measured for the first 15 min. The results for the last 10 min were used for analysis.

[9] = Sucrose preference test (SPT); type: in vivo, mice; conditions: 2 days
Protocol: The effect of the GALR2 agonist dN1-Qu on addiction reduction was investigated. In the same manner as in Example 3, a cannula was inserted into the lateral ventricle of mice. After injection of dimethyl sulfoxide (DMSO) and 0.4, 4, and 40 μg of dN1-Qu, the consumptions of water and 1% sucrose solution were measured for 2 days by the sucrose preference test (SPT) for addiction evaluation. According to this test, tap water and sucrose solution were filled in respective bottles and weighed before injection of the agonist. After free access to the fluids for 2 days, the bottles were weighed to compare the total consumption of the fluids and the percentage of the consumed sucrose solution in the total fluid consumption.

[10] = concentrations of 0.5, 1, and 3
[11] = 3 μg into the third ventricle, 24 h, compared to spexin-administered mice and control

Compound: PEG-NWTdANAALYLFGPdQ-NH2 ({PEG}-NWT[dA]NAALYLFGP[dQ]-NH2; reading uncertain) [PEG-se]
- stability in serum (100% FBS) [1]: increased stability
- effect on dietary intake after GALR2 antagonist M871 ([2]; 3 μg following 10 μg of M871): disappeared
- effect on weight loss after GALR2 antagonist M871 ([2]; 3 μg following 10 μg of M871): disappeared
- dietary intake [2, 10]: dietary intakes and weight losses were observed
- weight loss [2, 10]: dietary intakes and weight losses were observed
- specificity for GALR2 [3]: specificity for GALR2
- activity of neurons in the amygdala and arcuate nucleus [4]: increase the activity of neurons

Compound: CC(C)C[C@H](NC(=O)[C@H](C)NC(=O)[C@H](C)NC(=O)[C@H](CC(N)=O)NC(=O)[C@@H]1CCCN1C(=O)[C@@H](NC(=O)[C@H](Cc1c[nH]c2ccccc12)NC(=O)[C@H](N)CC(N)=O)[C@@H](C)O)C(=O)N[C@@H](Cc1ccc(O)cc1)C(=O)N[C@@H](CC(C)C)C(=O)N[C@@H](Cc1ccccc1)C(=O)NCC(=O)N1CCC[C@H]1C(=O)N[C@@H](CCC(N)=O)C(N)=O [dN1-Qu] (H-[dN]WTPNAALYLFGPQ-NH2)
- c-fos expressing neurons in the arcuate nucleus [5]: increase in the number of c-fos expressing neurons
- c-fos expressing neurons in the amygdala [6]: increase in the number of c-fos expressing neurons
- neurons in other emotion-regulating brain regions [6]: not activated
- % distance in center ([7]; first 5-min period): increased
- total distance ([7]; first 5-min period): no difference
- % distance in center ([7]; second 5-min period): increased
- stability in serum (100% FBS) [1]: increased stability
- change in body weight [2, 11]: weight loss was effectively induced
- dietary intake [2, 11]: significantly decreased
- specificity for GALR2 [3]: specificity for GALR2
- number of center crossing [8]: no difference
- number of open arm entry [8]: increased
- time in open arm [8]: increased
- total consumption of the fluids [9]: no difference
- consumption of sucrose ([9]; 1% sucrose solution): considerably reduced
- sucrose preference (consumed sucrose solution in total fluid consumption) ([9]; 1% sucrose, 0.4, 4, and 40 μg lateral ventricle, control ~70%): ≤ 60%
